Assay [1] in a line: Ionotropic effect in guinea pig ventricle papillary muscles assessed as lengthening of 25% repolarized cardiac action potential duration time at 10^-4 M by microelectrode technique relative to untreated control (reference value: 120 to 131 APD25 ms) in presence of 2 x 10^-5 M KATP channel blocker glibenclamide. In kind it is functional, Cavia porcellus.
Assay [2] is described as follows: Ionotropic effect in guinea pig ventricle papillary muscles assessed as lengthening of 50% repolarized cardiac action potential duration time at 10^-4 M by microelectrode technique relative to untreated control (reference value: 180 to 192 APD50 ms) in presence of 2 x 10^-5 M KATP channel blocker glibenclamide. Format: functional, Cavia porcellus.
Assay [3] is described as follows: Ionotropic effect in guinea pig ventricle papillary muscles assessed as lengthening of 90% repolarized cardiac action potential duration time at 10^-5 M by microelectrode technique relative to untreated control (reference value: 209 to 222 APD50 ms) in presence of 2 x 10^-5 M KATP channel blocker glibenclamide. Format: functional, Cavia porcellus.
Assay [4] is described as follows: Ionotropic effect in guinea pig right ventricle papillary muscles assessed as contraction force at 10^-6 M by force transduction assay relative to untreated control (reference value: 100%) in presence of 3.1 x 10^-6 M inward rectifier current blocker BaCl2. Format: functional, Cavia porcellus, Heart right ventricle.
The nature of assay [5]: Ionotropic effect in guinea pig ventricle papillary muscles assessed as lengthening of 50% repolarized cardiac action potential duration time at 10^-5 M by microelectrode technique relative to untreated control (reference value: 132 to 176 APD50 ms). Format: functional, Cavia porcellus, Papillary muscle.
Assay [6] can be described thus: Ionotropic effect in guinea pig ventricle papillary muscles assessed as lengthening of 10% repolarized cardiac action potential duration time at 10^-5 M by microelectrode technique relative to untreated control (reference value: 52 to 54 APD10 ms) in presence of 1 x 10^-6 M IKr channel blocker Sotalol. Format: functional, Cavia porcellus.
A short description of assay [7]: Ionotropic effect in guinea pig right ventricle papillary muscles assessed as contraction force at 10^-4 M by force transduction assay relative to untreated control (reference value: 100%). In kind it is functional, Cavia porcellus, Papillary muscle.
Assay [8] in a line: Ionotropic effect in guinea pig ventricle papillary muscles assessed as lengthening of 90% repolarized cardiac action potential duration time at 10^-5 M by microelectrode technique relative to untreated control (reference value: 132 to 176 APD50 ms). In kind it is functional, Cavia porcellus, Papillary muscle.
Assay [9] is described as follows: Ionotropic effect in guinea pig ventricle papillary muscles assessed as lengthening of 10% repolarized cardiac action potential duration time at 10^-5 M by microelectrode technique relative to untreated control (reference value: 52 to 54 APD10 ms) in presence of 2 x 10^-5 M KATP channel blocker glibenclamide. Format: functional, Cavia porcellus.
Assay [10] is described as follows: Ionotropic effect in guinea pig ventricle papillary muscles assessed as lengthening of 10% repolarized cardiac action potential duration time at 10^-7 M by microelectrode technique relative to untreated control (reference value: 52 to 54 APD10 ms) in presence of 2 x 10^-5 M KATP channel blocker glibenclamide. In kind it is functional, Cavia porcellus.
The nature of assay [11]: Ionotropic effect in guinea pig ventricle papillary muscles assessed as lengthening of 10% repolarized cardiac action potential duration time at 10^-7 M by microelectrode technique relative to untreated control (reference value: 52 to 54 APD10 ms) in presence of 3.1 x 10^-6 M inward rectifier current blocker BaCl2. In kind it is functional, Cavia porcellus.
A short description of assay [12]: Ionotropic effect in guinea pig ventricle papillary muscles assessed as lengthening of 25% repolarized cardiac action potential duration time at 10^-5 M by microelectrode technique relative to untreated control (reference value: 84 to 104 APD25 ms). In kind it is functional, Cavia porcellus, Papillary muscle.

SMILES strings stand for the structures.

For the molecule `CCCOCCOC(=O)C1=C(C)NC=C([N+](=O)[O-])C1c1ccccc1OC(F)F` (configuration not stated), the Time in assay [1] is reported as 164.8 ms; in assay [2], 247 ms; in assay [3], 265 ms; in assay [5], 205.8 ms; in assay [6], 54.6 ms; in [8] it was 238.5 ms. In addition, the Time in assay [9] amounted to 61 ms; in assay [10], 59.5 ms; in assay [11], 64.3 ms; in assay [12], 133 ms. In addition, the Activity amounted to 118% in assay [4] and 190.8% in [7].
